What was measured:
human CB1 receptors = target: T1, human CB1 receptors (Homo sapiens, UniProt P21554); assay: [3H]CP-55,940 radioligand competition binding assay, CB1; conditions: CHO cell membranes, [3H]CP-55,940 displacement
T1 construct: expressed in transfected cells
Experimental: Binding assay. The bioassay is carried out using the Perkin Elmer 96-well Top Counter. This bioassay is also known as a competition binding assay and the biological evaluation is to determine the CB receptor binding affinity (Ki) of the screened ligands by displacing [^3H]-CP-55940 (or other radioligands). The brief procedure is given below.
Perkin Elmer 96-well TopCounter is used at PMLSC and in our laboratory to determine the CB receptor binding affinity (Ki) of the in-silico screened ligands by displacing [^3H]-CP-55,940 (or other radioligands). In competition binding experiments, the tested compound dilutions are carried out in triplicate in TME buffer (25 mM Tris, 5 mM MgCl2, 1 mM EDTA) containing 0.1% (w/v) fatty acid free bovine serum albumin (BSA), pH 7.4. Various concentrations of the tested compound are added in the same volume to 0.5 nM [^3H]CP-55,940. TME buffer and cell membrane preparations expressing CB receptors (2.5 μg per well) are added to a final volume of 200 μL. For the saturation binding experiments, varying concentrations of [^3H]CP-55,940 (0.05-1.5 nM) with or without 2 μM of unlabeled ligands (CP-55,940 or WIN-55,212-2) are incubated with the receptor membrane preparations to determine Kd and nonspecific binding. After the binding suspensions are incubated at 30° C. for 1 hr, the reaction is terminated by rapid filtration through microfiltration plates coated with 0.5% polyethylenimine (Unifilter GF/B filterplate, PerkinElmer) followed by 5 washes with ice cold TME buffer containing 0.5% BSA on a Packard Filtermate Harvester (PerkinElmer). The plates are then dried overnight and 30 μl MicroScint 0 scintillation cocktail are added to each well of the dried filter plates. Then the bound radioactivity is counted using a Perkin Elmer 96-well TopCounter. The Ki is calculated by using nonlinear regression analysis (Prism 5; GraphPad Software Inc., San Diego, Calif.), with the Kd values for [^3H]CP-55,940 determined from saturation binding experiments. This assay is used for determining binding affinity parameters (Ki) of ligand-receptor interactions for the CB receptor.
The affinities of the synthesized ligands were determined in radioligand binding studies at human CB1 and CB2 receptors using [3H](—)-cis-3-[2-hydroxy-4-(1,1 dimethylheptyl)phenyl]-trans-4-(3-hydroxypropyl) cyclohexanol (CP55,940) as a CB receptor radioligand. As a source for human CB1 and CB2 receptors, membrane preparations of Chinese hamster ovary (CHO) cells stably expressing the respective receptor subtype were utilized (50 μg of protein/vial). CB2 selective ligand SR144528 (CB2 inverse agonist) and CB1 ligand SR141716 (CB1 inverse agonist) were used as positive controls, respectively, along with the tested compounds in bioassays experiments. Only compounds with high CB2 receptor binding potency was chosen to carry out the CB1 binding assay. CB ligand competition binding assay was carried out as described previously in Gertsch, J., et al., Beta-caryophyllene is a dietary cannabinoid. Proc Natl Acad Sci USA 2008, 105 (26), 9099-104. Briefly, non-radioactive (or cold) ligands (synthesized derivatives and reference ligands) were diluted in a binding buffer (50 mM Tris-HCl (pH 7.4), 5 mM MgC12, 2.5 mM EGTA, and 0.1% (w/v) fatty acid free BSA), supplemented with 10% dimethyl sulfoxide and 0.4% methyl cellulose. Each assay plate well contained a total of 200 μL of reaction mixture composed of 5 μg of CB1 (or 2.5 μg CB2) membrane protein, labeled [3H]-CP-55,940 ligand at a final concentration of 2.5 nM, and the unlabeled ligand at its varying dilutions as stated above. Plates were incubated at 30° C. for 1 hour with gentle shaking.
The reaction was terminated by rapid filtration through Unifilter GF/B filter plates using a Unifilter Cell Harvester (PerkinElmer). After the plate was allowed to dry overnight, 30 μL MicroScint-0 cocktail (PerkinElmer) was added to each well, and the radioactivity was counted using a PerkinElmer TopCounter. […]

[1] = test system: osteoclast precursor RAW264.7 cells; assay type: cell-based
Experimental: FIGS. 6A and 6B relate to cAMP Assay Results. Cytotoxicity effects of the synthesized CB2 ligands. FIG. 5A: Cytotoxicity effects of compound 15. FIG. 5B: Cytotoxicity effects of compound 18. Osteoclast precursor RAW264.7 cells (1.5×10^3 cells/well) were seeded on 96-well plates. Cells were incubated with the indicated doses of compounds 15 and 18 for 48 hours. The percentage of cell survival was determined by the MTT assay. Data is the mean±SD of three experiments carried out in duplicate.
The cell-proliferation effect of our CB2 ligands on the osteoclast precursor RAW264.7 cells was assessed using MTT 3-(4,5-dimethylthiazol-2-yl)-2,5-diphenyltetrazolium bromide (Sigma, St. Louis, USA). […] Optical density was read at 540 nm and subtracted from the background at 720 nm. The effect of ligands on cell viability was expressed as percent cell viability, with vehicle-treated control cells set at 100% (Feng, R., et al., KD5170, a novel mercaptoketone-based histone deacetylase inhibitor, exerts antimyeloma effects by DNA damage and mitochondrial signaling. Mol Cancer Ther 2008, 7 (6), 1494-505).
The cytotoxicity assay was carried out to exclude that the high osteoclast formation inhibition effects were not due to the toxicity of the newly discovered compounds. The cytotoxic effects were measured by utilizing the MTT cell-viability assay. […]

T1 sequence (P21554 whole entry): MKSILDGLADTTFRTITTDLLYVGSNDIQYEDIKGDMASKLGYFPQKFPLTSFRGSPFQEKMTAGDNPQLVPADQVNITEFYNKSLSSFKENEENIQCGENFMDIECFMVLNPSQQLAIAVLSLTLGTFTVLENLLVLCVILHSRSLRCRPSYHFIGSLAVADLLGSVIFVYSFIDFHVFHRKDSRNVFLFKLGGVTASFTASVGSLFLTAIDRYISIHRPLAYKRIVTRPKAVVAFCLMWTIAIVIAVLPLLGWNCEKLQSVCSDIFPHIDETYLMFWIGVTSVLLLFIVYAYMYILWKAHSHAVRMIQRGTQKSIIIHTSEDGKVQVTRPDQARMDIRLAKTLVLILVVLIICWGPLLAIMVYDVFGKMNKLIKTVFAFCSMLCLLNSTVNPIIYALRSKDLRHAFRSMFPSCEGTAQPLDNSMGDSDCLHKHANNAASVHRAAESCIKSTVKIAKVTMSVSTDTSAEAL

Compound	Ki (human CB1 receptors) [µM]	cell viability as compared to the control group (MTT) [1]
CCN(CC)c1ccc(CN(Cc2cc(OC)c(OC)c(OC)c2)C(=O)c2cccs2)cc1 [Compound 11, N-(4-(diethylamino)benzyl)-N-(3,4,5-trimethoxybenzyl)thiophene-2-carboxamide]	3.28	–
CCN(CC)c1ccc(CN(Cc2cc(OC)c(OC)c(OC)c2)S(=O)(=O)/C=C/c2ccccc2)cc1 [Compound 15, (E)-N-(4-(diethylamino)benzyl)-2-phenyl-N-(3,4,5-trimethoxybenzyl)ethene-1-sulfonamidebenzenesulfonamide]	> 20	not significantly altered
CCN(CC)c1ccc(CN(Cc2cc(OC)c(OC)c(OC)c2)S(=O)(=O)c2ccc(C=O)cc2)cc1 [Compound 18, N-(4-(diethylamino)benzyl)-4-formyl-N-(3,4,5-trimethoxybenzyl)benzenesulfonamide]	2.29	not significantly altered

Source: patent US11059778B2, “Cannabinoid receptor CB2 ligand 4-(aminomethyl)-N, N-dialkylanilines” (UNIVERSITY OF PITTSBURGH—OF THE COMMONWEALTH SYSTEM OF …, priority 2015, dated 2021)
